The record followed here is PubChem BioAssay (NCI).

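96-well plates; 48 h exposure; 5 concentrations. Endpoints by linear interpolation between flanking doses. Not reached: highest tested concentration assigned. GI50 marks 50% less growth. TGI: total growth inhibition.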

Among the test systems are SK-MEL-2 melanoma; RPMI-8226 leukemia; ACHN renal; PC-3 prostate; UACC-257 melanoma; OVCAR-3 ovarian; OVCAR-8 ovarian; IGROV1 ovarian; SR leukemia; SW-620 colon; BT-549 breast; OVCAR-5 ovarian; SF-268 CNS; DU-145 prostate; HCT-116 colon; KM12 colon; OVCAR-4 ovarian; A549 NSCLC.
Holding throughout (test): NCI-60 cell line screen, 48 h

Take `O=C(Cc1ccc(Cl)cc1)Nc1ccc2oc(-c3ccccc3)nc2c1`: the TGI in the assay on SK-MEL-2 melanoma, with RPMI-8226 leukemia, in the assay with ACHN renal, in the assay with PC-3 prostate, with UACC-257 melanoma and in the assay on OVCAR-3 ovarian was above 100 µM each time. The TGI in the assay on OVCAR-8 ovarian, in the assay on IGROV1 ovarian, in the assay with SR leukemia, in the assay on SW-620 colon, in the assay on BT-549 breast and with OVCAR-5 ovarian was above 100 µM throughout. The TGI in the assay on SF-268 CNS, in the assay with DU-145 prostate, in the assay with HCT-116 colon, in the assay with KM12 colon, with OVCAR-4 ovarian and in the assay with A549 NSCLC was above 100 µM throughout.

For the compound `C[N+]1(Cc2ccc(Cl)c(Cl)c2)CCCC1C1CCCN(Cc2ccc(Cl)c(Cl)c2)C1` (stereo not drawn), the TGI with SK-MEL-2 melanoma, in the assay with RPMI-8226 leukemia, in the assay with ACHN renal, with PC-3 prostate, with UACC-257 melanoma and in the assay on OVCAR-3 ovarian was above 100 µM throughout. In addition, the TGI in the assay on OVCAR-8 ovarian, in the assay with IGROV1 ovarian, in the assay with SR leukemia, in the assay with SW-620 colon, in the assay with BT-549 breast and in the assay with OVCAR-5 ovarian was above 100 µM in each case. The TGI in the assay on SF-268 CNS, in the assay with DU-145 prostate, in the assay on HCT-116 colon, with KM12 colon, in the assay on OVCAR-4 ovarian and with A549 NSCLC was above 100 µM each time.

Take `CC(=O)N(C(C)=O)n1c(-c2ccccc2)n[nH]c1=O`: the TGI with SK-MEL-2 melanoma, in the assay on RPMI-8226 leukemia, in the assay on ACHN renal, in the assay on PC-3 prostate, in the assay on UACC-257 melanoma and in the assay on OVCAR-3 ovarian was above 100 µM throughout. Further, the TGI in the assay on OVCAR-8 ovarian, with IGROV1 ovarian, in the assay with SR leukemia, with SW-620 colon, in the assay on BT-549 breast and with OVCAR-5 ovarian was above 100 µM throughout. The TGI in the assay with SF-268 CNS, in the assay on DU-145 prostate, with HCT-116 colon, with KM12 colon, in the assay with OVCAR-4 ovarian and in the assay with A549 NSCLC was above 100 µM each time.

On to `CC(=O)c1cccc(Nc2nc3ccc(Cl)cc3c3[nH]c4ccccc4c23)c1`, for which the TGI was 30.8 µM in the assay with SK-MEL-2 melanoma; above 100 µM with RPMI-8226 leukemia; 40.6 µM in the assay on ACHN renal; 30.9 µM with PC-3 prostate; above 88.2 µM in the assay on UACC-257 melanoma; 8.16 µM in the assay on OVCAR-3 ovarian. Further, the TGI is 32.7 µM in the assay on OVCAR-8 ovarian; above 48.6 µM in the assay on IGROV1 ovarian; above 100 µM in the assay on SR leukemia; above 85.6 µM in the assay on SW-620 colon; above 100 µM in the assay with BT-549 breast; 61.6 µM in the assay with OVCAR-5 ovarian. Besides, the TGI is 36.9 µM with SF-268 CNS; 26.8 µM with DU-145 prostate; above 54.5 µM in the assay on HCT-116 colon; above 100 µM in the assay with KM12 colon; 21.5 µM with OVCAR-4 ovarian; 8.45 µM in the assay with A549 NSCLC. Also, the GI50 was 4.21 µM with SR leukemia and 3.56 µM with OVCAR-4 ovarian.

As for `COc1ccc(N2C(=O)C(C)SC2c2cc3cc(Br)ccc3nc2Cl)cc1` (stereo not drawn), the TGI was 48.4 µM in the assay with SK-MEL-2 melanoma; above 100 µM in the assay with RPMI-8226 leukemia; above 100 µM in the assay with ACHN renal; above 100 µM in the assay with PC-3 prostate; above 100 µM in the assay on UACC-257 melanoma; above 100 µM with OVCAR-3 ovarian. Further, the TGI in the assay with OVCAR-8 ovarian was above 100 µM; in the assay with IGROV1 ovarian, above 100 µM; with SR leukemia it was 72.3 µM; with SW-620 colon, above 100 µM; in the assay with BT-549 breast, 99.7 µM; in the assay on OVCAR-5 ovarian, above 100 µM. Moreover, the TGI with SF-268 CNS, with DU-145 prostate, in the assay with HCT-116 colon, in the assay with KM12 colon, in the assay on OVCAR-4 ovarian and with A549 NSCLC was above 100 µM throughout.

As to `O=[N+]([O-])c1cc2c(c([N+](=O)[O-])c1)NCc1ccccc1O2`, the TGI with SK-MEL-2 melanoma, with RPMI-8226 leukemia, with ACHN renal, in the assay with PC-3 prostate, with UACC-257 melanoma and in the assay on OVCAR-3 ovarian was above 100 µM throughout. Moreover, the TGI with OVCAR-8 ovarian, in the assay with IGROV1 ovarian, with SR leukemia, in the assay with SW-620 colon, with BT-549 breast and with OVCAR-5 ovarian was above 100 µM throughout. For the same compound, the TGI in the assay with SF-268 CNS, in the assay on DU-145 prostate, with HCT-116 colon, with KM12 colon, with OVCAR-4 ovarian and in the assay with A549 NSCLC was above 100 µM each time.

Consider `O=P1(c2ccccc2)C(c2ccccc2)=CC=C1c1ccccc1`, for which the TGI in the assay with SK-MEL-2 melanoma is 40.9 µM; in the assay on RPMI-8226 leukemia, 19.4 µM; with ACHN renal, above 100 µM; in the assay with PC-3 prostate, 62.8 µM; in the assay with UACC-257 melanoma, above 100 µM; in the assay with OVCAR-3 ovarian it was 89.8 µM. The TGI in the assay with OVCAR-8 ovarian is 43.4 µM; in the assay with IGROV1 ovarian, above 100 µM; with SR leukemia, 52.7 µM; with SW-620 colon, above 100 µM; in the assay with BT-549 breast, above 100 µM; with OVCAR-5 ovarian it was above 100 µM. In addition, the TGI with SF-268 CNS is above 100 µM; in the assay on DU-145 prostate, above 100 µM; in the assay with HCT-116 colon, above 100 µM; with KM12 colon, 50.1 µM; in the assay with OVCAR-4 ovarian it was above 100 µM; in the assay on A549 NSCLC, above 100 µM.

Consider `OC1[C@H](O)CN(OCc2ccccc2)C[C@@H]1O` (stereo partly drawn), for which the TGI in the assay with SK-MEL-2 melanoma, with RPMI-8226 leukemia, in the assay with ACHN renal, with PC-3 prostate, with UACC-257 melanoma and with OVCAR-3 ovarian was above 100 µM each time. Moreover, the TGI in the assay with OVCAR-8 ovarian, with IGROV1 ovarian, in the assay with SR leukemia, in the assay on SW-620 colon, with BT-549 breast and with OVCAR-5 ovarian was above 100 µM throughout. Further, the TGI in the assay with SF-268 CNS, in the assay with DU-145 prostate, in the assay with HCT-116 colon, in the assay on KM12 colon, with OVCAR-4 ovarian and with A549 NSCLC was above 100 µM each time.

`Cc1c(F)c(N)c2c(=O)cc(-c3ccc(N)c(F)c3)oc2c1F`: the TGI is 81.2 µM in the assay on SK-MEL-2 melanoma; above 96.1 µM with RPMI-8226 leukemia; 50.4 µM with ACHN renal; 45.6 µM in the assay with PC-3 prostate; above 100 µM in the assay on UACC-257 melanoma; above 100 µM in the assay on OVCAR-3 ovarian. Also, the TGI in the assay with OVCAR-8 ovarian is 58.7 µM; in the assay with IGROV1 ovarian, 25.2 µM; in the assay on SR leukemia, 82.8 µM; in the assay with SW-620 colon it was above 100 µM; in the assay on BT-549 breast it was 36.8 µM; in the assay on OVCAR-5 ovarian it was 15.8 µM. The TGI with SF-268 CNS was 76.7 µM; in the assay with DU-145 prostate, above 100 µM; with HCT-116 colon, 38.2 µM; with KM12 colon, above 100 µM; in the assay on OVCAR-4 ovarian, 48.8 µM; in the assay on A549 NSCLC, 59 µM.

In the case of `COc1ccc(C2=NN(C(N)=S)C(c3ccccc3)C2)cc1` (stereo not drawn), the TGI with SK-MEL-2 melanoma was 78.4 µM; in the assay with RPMI-8226 leukemia, 74.8 µM; in the assay with ACHN renal, above 100 µM; with PC-3 prostate, 97.5 µM; in the assay with UACC-257 melanoma it was 99.1 µM; with OVCAR-3 ovarian, above 100 µM. Besides, the TGI in the assay with OVCAR-8 ovarian was above 100 µM; in the assay with IGROV1 ovarian it was above 100 µM; with SR leukemia, 77.3 µM; in the assay on SW-620 colon it was above 100 µM; in the assay with BT-549 breast, above 100 µM; with OVCAR-5 ovarian it was above 100 µM. Further, the TGI with SF-268 CNS, with DU-145 prostate, in the assay on HCT-116 colon, in the assay on KM12 colon, with OVCAR-4 ovarian and in the assay on A549 NSCLC was above 100 µM in each case.

Turning to `O=C(NNCc1ccco1)c1cc2ccccc2[nH]1`, the TGI in the assay on SK-MEL-2 melanoma is above 100 µM; in the assay on RPMI-8226 leukemia it was above 100 µM; in the assay on ACHN renal, above 100 µM; in the assay with PC-3 prostate, above 100 µM; in the assay with UACC-257 melanoma, above 100 µM; with OVCAR-3 ovarian, above 95 µM. Also, the TGI in the assay on OVCAR-8 ovarian is above 86.5 µM; in the assay with IGROV1 ovarian, above 100 µM; in the assay with SR leukemia it was above 100 µM; with SW-620 colon, above 100 µM; in the assay with BT-549 breast, above 90.5 µM; in the assay on OVCAR-5 ovarian, above 100 µM. The TGI in the assay on SF-268 CNS is above 100 µM; in the assay on DU-145 prostate it was above 100 µM; in the assay on HCT-116 colon, above 100 µM; with KM12 colon, above 100 µM; in the assay with OVCAR-4 ovarian, above 71.8 µM; in the assay with A549 NSCLC, above 100 µM.

As to `CCOc1cc2c(cc1O)CC[C@@H]1[C@@H]2CC[C@]2(C)C(N)CC[C@@H]12` (stereo partly drawn), the TGI with SK-MEL-2 melanoma worked out at 21.3 µM; with RPMI-8226 leukemia, 10 µM; in the assay with ACHN renal it was 26.2 µM; in the assay with PC-3 prostate, 13.7 µM; in the assay with UACC-257 melanoma it was 16.3 µM; with OVCAR-3 ovarian, 24.7 µM. Moreover, the TGI in the assay with OVCAR-8 ovarian worked out at 11.2 µM; with IGROV1 ovarian, 12.6 µM; with SR leukemia, 7 µM; in the assay on SW-620 colon, 14.3 µM; with BT-549 breast, 30.8 µM; with OVCAR-5 ovarian it was 36.9 µM. For the same compound, the TGI in the assay with SF-268 CNS amounted to 23.8 µM; with DU-145 prostate it was 7.08 µM; in the assay with HCT-116 colon it was 12.6 µM; with KM12 colon it was 8.03 µM; in the assay on OVCAR-4 ovarian, 58.7 µM; in the assay on A549 NSCLC, 16.1 µM.
